Results taken from paper doi:10.1101/2020.07.10.197525v1 (biorxiv, 2020).
pEC50: −log10 of the molar value.

Legend:
GABAA α3β3γ2 = GABAA α3β3γ2 (Rattus norvegicus, UniProt P18508+P20236+P63079); assay: voltage clamp of Xenopus oocytes, potentiation of GABA-induced currents; assay type: cell-based
GABAA α3β2γ2 = GABAA α3β2γ2 (Rattus norvegicus, UniProt P18508+P20236+P63138); assay: as above; assay type: cell-based
Sequence of GABAA α3β2γ2 (P20236 29-493): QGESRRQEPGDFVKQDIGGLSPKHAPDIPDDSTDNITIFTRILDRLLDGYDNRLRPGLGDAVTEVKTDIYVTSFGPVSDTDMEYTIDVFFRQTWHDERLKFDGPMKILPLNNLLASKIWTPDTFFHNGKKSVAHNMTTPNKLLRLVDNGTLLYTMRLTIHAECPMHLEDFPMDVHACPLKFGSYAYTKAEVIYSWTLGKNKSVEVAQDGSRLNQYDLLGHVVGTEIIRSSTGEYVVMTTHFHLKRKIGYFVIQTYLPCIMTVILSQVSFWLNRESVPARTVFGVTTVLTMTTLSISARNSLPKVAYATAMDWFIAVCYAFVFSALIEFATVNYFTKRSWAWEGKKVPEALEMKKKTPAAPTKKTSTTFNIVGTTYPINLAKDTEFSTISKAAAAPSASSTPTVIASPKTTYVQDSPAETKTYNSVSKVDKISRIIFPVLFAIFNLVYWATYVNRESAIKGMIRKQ
Sequence of GABAA α3β2γ2 (P63138 26-474): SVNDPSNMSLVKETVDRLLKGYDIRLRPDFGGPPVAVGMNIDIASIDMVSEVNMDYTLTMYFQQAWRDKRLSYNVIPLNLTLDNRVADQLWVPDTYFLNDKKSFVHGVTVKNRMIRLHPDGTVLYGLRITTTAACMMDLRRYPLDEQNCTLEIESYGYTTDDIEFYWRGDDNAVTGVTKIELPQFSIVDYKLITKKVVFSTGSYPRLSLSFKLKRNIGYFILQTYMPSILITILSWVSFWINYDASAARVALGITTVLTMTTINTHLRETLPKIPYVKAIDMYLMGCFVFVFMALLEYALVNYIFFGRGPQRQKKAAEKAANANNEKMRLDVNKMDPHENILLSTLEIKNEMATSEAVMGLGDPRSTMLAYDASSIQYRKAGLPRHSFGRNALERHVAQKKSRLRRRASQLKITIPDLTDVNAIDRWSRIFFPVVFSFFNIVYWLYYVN
Sequence of GABAA α3β2γ2 (P18508 39-466): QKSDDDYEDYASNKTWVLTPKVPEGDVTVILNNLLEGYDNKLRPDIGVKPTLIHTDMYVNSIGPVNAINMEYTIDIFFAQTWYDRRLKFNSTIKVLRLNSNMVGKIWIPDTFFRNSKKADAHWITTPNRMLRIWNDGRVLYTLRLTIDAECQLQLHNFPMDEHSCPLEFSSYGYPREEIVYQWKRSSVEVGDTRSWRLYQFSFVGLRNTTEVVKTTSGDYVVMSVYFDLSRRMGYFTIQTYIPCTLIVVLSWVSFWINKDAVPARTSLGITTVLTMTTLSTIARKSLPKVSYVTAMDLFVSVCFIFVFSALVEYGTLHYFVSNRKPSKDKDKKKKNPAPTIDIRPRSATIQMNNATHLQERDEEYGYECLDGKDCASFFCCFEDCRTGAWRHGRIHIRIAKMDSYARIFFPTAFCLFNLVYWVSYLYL

Sequence of GABAA α3β3γ2 (P20236 29-493): as the sequence (P20236 29-493) above
Sequence of GABAA α3β3γ2 (P63079 26-473): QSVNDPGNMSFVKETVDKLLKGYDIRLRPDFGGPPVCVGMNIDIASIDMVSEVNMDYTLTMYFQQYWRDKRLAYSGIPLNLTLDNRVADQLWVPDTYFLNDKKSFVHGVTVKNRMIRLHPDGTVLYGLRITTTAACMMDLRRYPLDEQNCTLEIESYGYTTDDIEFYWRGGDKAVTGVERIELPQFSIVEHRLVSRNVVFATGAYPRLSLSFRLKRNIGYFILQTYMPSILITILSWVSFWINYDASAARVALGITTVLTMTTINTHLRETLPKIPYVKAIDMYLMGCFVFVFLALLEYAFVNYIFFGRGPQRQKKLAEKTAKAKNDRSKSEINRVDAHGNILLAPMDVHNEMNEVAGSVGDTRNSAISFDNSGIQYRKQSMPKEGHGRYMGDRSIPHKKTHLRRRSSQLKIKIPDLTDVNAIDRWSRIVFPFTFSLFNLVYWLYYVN
Sequence of GABAA α3β3γ2 (P18508 39-466): as the sequence (P18508 39-466) above

With `CCOC(=O)c1cc(NC(=O)N(c2ccccc2)c2ccccc2)c2c(Cl)cc(Cl)cc2n1` [DCUK-OEt, 5,7-dichloro-4-([diphenylcarbamoyl]amino) quinoline-2-ethyl carboxylate] the pEC50 (GABAA α3β3γ2) was 6.89 and the pEC50 (GABAA α3β2γ2) was 6.42.
